Source: article PMC10747733, “N-Substituted 2-(Benzenosulfonyl)-1-Carbotioamide Derivatives Exert Antimicrobial and Cytotoxic Effects via Aldehyde Dehydrogenase Pathway: Synthesis, In Silico and In Vitro Studies” (Pharmaceuticals, 2023)
Values after ≈ are worked out from the molar mass of the structure shown. “Also recorded” adds a separate entry of the source.

Experiments:
ALDH1A1 = ALDH1A1 concentration by ELISA in Du145 cells; type: cell-based, human
Experimental: The effect of compounds WZ1–WZ4 on ALDHA1 levels was investigated (Figure 10). The Du145, HepG2 and 769-P cell lines were treated with the calculated IC25 values for each compound.
Selected cell lines, viz HepG2, Du145 and 769-P, were seeded into 6-well plates and incubated for 24 h after seeding with compounds at a concentration equal to IC25. After a further 24 h or 48 h, cells were detached with trypsin and centrifuged. The resulting cell pellet was resuspended in 0.5 mL PBS. The samples were then sonicated, and protein was determined using the Bradford method (Bio-rad; Hercules, CA, USA). Samples were equilibrated to 10 mg/mL of protein, and ALDH1A1 was determined in the samples prepared in this way. ALDH1A1 determination was performed using an ELISA (SEE824Hu; Cloud Clone Corp., Katy, TX, USA), according to the manufacturer’s protocol.

Gram-positive bacteria = assay: Broth microdilution, summary over reference Gram-positive bacteria; type: cell-based; conditions: for share of reference Gram-positive strains with no activity: no activity: MIC > 1000 µg/mL
Text: (§1) Reference strains of microorganisms that came from American Type Culture Collection (ATCC) (Manassas, VA, USA) were used for this study. The representative Gram-positive bacteria were as follows: Staphylococcus aureus ATCC 25923, Staphylococcus aureus ATCC 29213, Staphylococcus aureus ATCC 43300, Staphylococcus epidermidis ATCC 12228, Enterococcus faecalis ATCC 29212, Micrococcus luteus ATCC 10240, Bacillus subtilis ATCC 6633 and Bacillus cereus ATCC 10876. While, those of Gram-negative bacteria were as follows: Bordetella bronchiseptica ATCC 4617, Escherichia coli ATCC 25922, Klebsiella pneumoniae ATCC 13883, Proteus mirabilis ATCC 12453, Salmonella Typhimurium ATCC 14028 and Pseudomonas aeruginosa ATCC 9027. Moreover, the following fungi belonging to yeasts were used: Candida albicans ATCC 10231, Candida albicans ATCC 2091, Candida parapsilosis ATCC 22019, Candida glabrata ATCC 90030 and Candida krusei ATCC 14243.
(§2) The new compounds WZ1–WZ4 were assayed for both antibacterial and antifungal activity using the broth microdilution method in accordance with the European Committee on Antimicrobial Susceptibility Testing (EUCAST) and Clinical and Laboratory Standards Institute (CLSI) guidelines. The microorganisms were grown at 35 °C for 18–24 h on appropriate media (nutrient agar and Sabouraud for bacteria and fungi, respectively) (BioMaxima S.A., Lublin, Poland). Next, microbial suspensions with an optical density of 0.5 McFarland standard scale (in sterile 0.85% NaCl) were prepared. In turn, the tested compounds were initially diluted at 50 mg/mL in dimethyl sulfoxide (DMSO) and the broth microdilution method was used to assess their minimum inhibitory concentrations (MICs). For these studies, selective broth Mueller-Hinton (MH) (BioMaxima S.A., Lublin, Poland) and RPMI (Roswell Park Memorial Institute) 1640 with MOPS (3-(N-Morpholino)propanesulfonic acid) (Sigma-Aldrich Chemicals, St. Louis, MO, USA) were used for bacteria and fungi, respectively. The antimicrobial effect of compounds WZ1–WZ4 was determined in the concentration range from 2000 to 0.98 µg/mL.
(§3) Then, the microbial suspensions were introduced into each well of the microplate and incubated for 18–24 h at 35 °C. […] The reference drugs ciprofloxacin or vancomycin (against bacteria) and nystatin (against fungi) (Sigma-Aldrich Chemicals, St. Louis, MO, USA) were also used. Next, the values of the minimum bactericidal concentration (MBC) and minimum fungicidal concentration (MFC) of WZ1–WZ4 were assessed. For this purpose, the cultures from each MIC determination well were transferred to a suitable solid medium and incubated under appropriate conditions. The lowest concentrations of compounds without microbial growth were read as MBC or MFC. The studies were performed in triplicate and representative data were gathered.
(§4) In turn, the MBC/MIC or MFC/MIC ratios were used to assess bactericidal/fungicidal (MBC/MIC or MFC/MIC ≤ 4) and bacteriostatic/fungistatic (MBC/MIC or MFC/MIC > 4) effect of these compounds [93].

[1] = test system: Bordetella bronchiseptica ATCC 4617; assay: Broth microdilution antimicrobial activity; type: cell-based; conditions: for MBC / MIC: ATCC4617
Text: as §1, §2, §3, §4

[2] = test system: Staphylococcus epidermidis ATCC 12228; assay: Broth microdilution antimicrobial activity; type: cell-based; conditions: for MBC / MIC: ATCC12228
Text: as §1, §2, §3, §4

[3] = test system: Candida albicans ATCC 2091; assay: Broth microdilution antimicrobial activity; type: cell-based; conditions: for MFC: ATCC2091, read-out: MFC; for MIC: ATCC2091, read-out: MIC
Text: as §1, §2, §3, §4

[4] = test system: Proteus mirabilis ATCC 12453; assay: Broth microdilution antimicrobial activity; type: cell-based; conditions: for MBC / MIC: ATCC12453
Text: as §1, §2, §3, §4

[5] = test system: Pseudomonas aeruginosa ATCC 9027; assay: Broth microdilution antimicrobial activity; type: cell-based; conditions: for MBC / MIC: ATCC9027
Text: as §1, §2, §3, §4

[6] = test system: Candida glabrata ATCC 90030; assay: Broth microdilution antimicrobial activity; type: cell-based; conditions: for MFC / MIC: Nakaseomyces glabratus; for MFC: ATCC90030, read-out: MFC; for MIC: ATCC90030, read-out: MIC
Text: as §1, §2, §3, §4

[7] = test system: Klebsiella pneumoniae ATCC 13883; assay: Broth microdilution antimicrobial activity; type: cell-based; conditions: for MBC / MIC: ATCC13883
Text: as §1, §2, §3, §4

[8] = test system: Escherichia coli ATCC 25922; assay: Broth microdilution antimicrobial activity; type: cell-based; conditions: for MBC / MIC: ATCC25922
Text: as §1, §2, §3, §4

[9] = test system: Candida albicans ATCC 10231; assay: Broth microdilution antimicrobial activity; type: cell-based; conditions: for MFC: ATCC10231, read-out: MFC; for MIC: ATCC10231, read-out: MIC
Text: as §1, §2, §3, §4

[10] = test system: Bacillus cereus ATCC 10876; assay: Broth microdilution antimicrobial activity; type: cell-based; conditions: for MBC / MIC: ATCC10876
Text: as §1, §2, §3, §4

[11] = test system: Micrococcus luteus ATCC 10240; assay: Broth microdilution antimicrobial activity; type: cell-based; conditions: for MBC / MIC: ATCC10240
Text: as §1, §2, §3, §4

[12] = test system: Staphylococcus aureus ATCC 25923; assay: Broth microdilution antimicrobial activity; type: cell-based; conditions: for MBC / MIC: ATCC25923
Text: as §1, §2, §3, §4

Candida spp. = assay: Broth microdilution, summary over reference Candida spp.; type: cell-based; conditions: reference Candida spp.
Text: as §1, §2, §3, §4

CCCCNC(=S)NNS(=O)(=O)c1ccccc1 [WZ2, 2-(Benzenesulfonyl)-N-Butylhydrazine-1-Carbothioamide] was tested, and the “ALDH1A1 concentration compared to control” value (ALDH1A1; compound at IC25, 24 h) was “increased”, the “ALDH1A1 concentration compared to control” value (ALDH1A1; compound at IC25, 48 h) was “decrease; also recorded: significantly reduced” and the “share of reference Gram-positive strains with mild activity” value (Gram-positive bacteria; mild activity: MIC 501–1000 µg/mL, 8 strains) was 62.5%. The MIC (Gram-positive bacteria; most Gram-positive bacteria) was 1000 µg/mL (≈ 3.48 mM), the “share of reference Gram-positive strains with no activity” value (Gram-positive bacteria; 8 strains) was 37.5% and the MBC/MIC [1] was greater than 1. The MBC [1] was greater than 2000 µg/mL, the MIC [1] was greater than 2000 µg/mL and the MBC/MIC [2] was greater than 2. For the same compound, the MBC [2] was greater than 2000 µg/mL, the MIC [2] was 1000 µg/mL (≈ 3.48 mM) and the MFC/MIC [3] was greater than 1. The MFC [3] was greater than 2000 µg/mL, the MIC [3] was 2000 µg/mL (≈ 6.96 mM) and the MBC/MIC [4] was greater than 1. For the same compound, the MBC [4] was greater than 2000 µg/mL, the MIC [4] was greater than 2000 µg/mL and the MBC/MIC [5] was greater than 1. It also gave an MBC [5] greater than 2000 µg/mL, an MIC [5] greater than 2000 µg/mL and an MFC/MIC [6] greater than 1. The MFC [6] was greater than 2000 µg/mL, the MIC [6] was greater than 2000 µg/mL and the MBC/MIC [7] was greater than 1. For the same compound, the MBC [7] was greater than 2000 µg/mL, the MIC [7] was greater than 2000 µg/mL and the MBC/MIC [8] was greater than 1. It also gave an MBC [8] greater than 2000 µg/mL, an MIC [8] greater than 2000 µg/mL and an MFC/MIC [9] greater than 1. The MFC [9] was greater than 2000 µg/mL, the MIC [9] was 2000 µg/mL (≈ 6.96 mM) and the MBC/MIC [10] was 2. It also gave an MBC [10] of 2000 µg/mL (≈ 6.96 mM), an MIC [10] of 1000 µg/mL (≈ 3.48 mM) and an MBC/MIC [11] of 2. For the same compound, the MBC [11] was 2000 µg/mL (≈ 6.96 mM), the MIC [11] was 1000 µg/mL (≈ 3.48 mM) and the MBC/MIC [12] was greater than 2. The MBC [12] was greater than 2000 µg/mL, the MIC [12] was 1000 µg/mL (≈ 3.48 mM) and the anticandidal bioactivity class (Candida spp.) was “no anticandidal bioactivity”.

In the case of O=S(=O)(NNC(=S)NC1CCCCC1)c1ccccc1 [WZ1, 2-(Benzenesulfonyl)-N-Cyclohexylhydrazine-1-Carbothioamide], the MIC (Gram-positive bacteria; Enterococcus faecalis, Gram-positive bacteria except E. faecalis) is reported as 250 to 500 µg/mL (≈ 0.798 to 1.6 mM), the MIC (Gram-positive bacteria; almost all Gram-positive bacteria) is reported as 62.5 to 500 µg/mL (≈ 0.199 to 1.6 mM) and the “share of reference Gram-positive strains with moderate activity” value (Gram-positive bacteria; moderate activity: MIC 126–500 µg/mL, 8 strains) is reported as 87.5%. For the same compound, the “share of reference Gram-positive strains with no activity” value (Gram-positive bacteria; 8 strains) was 12.5%, the MBC/MIC [1] was greater than 1 and the MBC [1] was greater than 2000 µg/mL. It also gave an MIC [1] greater than 2000 µg/mL, an MBC/MIC [2] greater than 8 and an MBC [2] greater than 2000 µg/mL. The MIC [2] was 250 µg/mL (≈ 0.798 mM), the MFC/MIC [3] was greater than 1 and the MFC [3] was greater than 2000 µg/mL. The MIC [3] was greater than 2000 µg/mL, the MBC/MIC [4] was greater than 1 and the MBC [4] was greater than 2000 µg/mL. For the same compound, the MIC [4] was greater than 2000 µg/mL, the MBC/MIC [5] was greater than 1 and the MBC [5] was greater than 2000 µg/mL. The MIC [5] was greater than 2000 µg/mL, the MFC/MIC [6] was greater than 1 and the MFC [6] was greater than 2000 µg/mL. The MIC [6] was greater than 2000 µg/mL, the MBC/MIC [7] was greater than 1 and the MBC [7] was greater than 2000 µg/mL. The MIC [7] was greater than 2000 µg/mL, the MBC/MIC [8] was greater than 1 and the MBC [8] was greater than 2000 µg/mL. It also gave an MIC [8] greater than 2000 µg/mL, an MFC/MIC [9] greater than 1 and an MFC [9] greater than 2000 µg/mL. For the same compound, the MIC [9] was greater than 2000 µg/mL, the MBC/MIC [10] was greater than 4 and the MBC [10] was greater than 2000 µg/mL. For the same compound, the MIC [10] was 500 µg/mL (≈ 1.6 mM), the MBC/MIC [11] was greater than 4 and the MBC [11] was greater than 2000 µg/mL. The MIC [11] was 500 µg/mL (≈ 1.6 mM), the MBC/MIC [12] was greater than 4 and the MBC [12] was greater than 2000 µg/mL. The MIC [12] was 500 µg/mL (≈ 1.6 mM) and the anticandidal bioactivity class (Candida spp.) was “no anticandidal bioactivity”.
